In US9963433B2, “Anticancer drugs including the chemical structures of an androgen receptor ligand and a histone deacetylase inhibitor” (Wayne State University, priority 2016, dated 2018):

Key:
[1] = system: AR chromatin association at KLK3 ARE enhancer elements; assay: ChIP of AR at KLK3 enhancer in C4-2 cells; settings: compound 10 μM, R1881 1 nM or 10 nM, 2 h, FIG. 3C
Experimental: (3C) C4-2 cells plated in hormone-depleted medium were treated with either vehicle, R1881, or the indicated compound for 2 h. Cells were harvested and subjected to ChIP using AR antibody. Taqman probes targeting ARE enhancer elements associated with the KLK3 gene were used to quantify the immunoprecipitated chromatin.
Chromatin Immunoprecipitation (ChIP). […] The ChIP signals were measured by quantitative real time PCR analysis of the immunoprecipitated products.
As a target site for the ChIP assay, the well-established AR binding enhancer elements located 4 kb upstream of the transcription initiation site of the KLK3 gene was chosen.

DLC1 mRNA in LNCaP cells = assay: In situ HDACi activity: DLC1 mRNA in LNCaP cells; type: cell-based; settings: 10 μM, 48 h, normalized to GAPDH mRNA, FIG. 2E
Experimental: (§1) FIGS. 2A-2F show measurement of intrinsic and in situ HDACi activities. […]. IC50 values were calculated from nonlinear regression plots using GraphPad Prism5 software. (2B) Enz, 1002 and 3-52 were tested against HeLa cell nuclear extract at 10 μM and 25 μM and TSA (1 μM) was used as positive control. […] Recombinant HDAC6 was incubated with each drug at the indicated concentrations. IC50 values were calculated from nonlinear regression plots using GraphPad Prism5 software. (2D) Enz, 1002 and 3-52 were tested against recombinant HDAC6 at 10 μM and 25 μM and TSA (1 μM) was used as positive control. […]
(§2) Cell Culture and Reagents. LNCaP and 22Rv1 cell lines were from American Type Culture Collection (Manassas, Va.). C4-2 cells were kindly provided by Dr. Edwin Sanchez (University of Toledo). LNCaP and C4-2 cells were routinely grown at 37° C. in 5% CO2 in RPMI 1640 medium supplemented with 10% FBS (Invitrogen); 100 units/ml penicillin, 100 μg/ml streptomycin, 2 mM L-glutamine mixture (Invitrogen); and sodium pyruvate (1 mM) (Invitrogen). 22Rv1 cells were grown in RPMI 1640 medium supplemented with 10% FBS (Invitrogen); 100 units/ml penicillin, 100 μg/ml streptomycin, 2 mM L-glutamine mixture (Invitrogen). Affinity-purified rabbit anti-human antibody to AR (sc-816) and mouse anti-human antibody to GAPDH (sc-47724) were purchased from Santa Cruz Biotechnology (Santa Cruz, Calif.). Affinity-purified rabbit anti-human antibody to Hsp90 (C45G5) #4877 and rabbit anti-human antibody to acetylated lysine #9441 were purchased from Cell Signaling Technology. R1881 was kindly provided by Dr. Stephan Patrick (Karmanos Cancer Institute). All experiments were conducted using phenol-red free growth media. For hormone depletion, cells were grown in phenol-red free RPMI 1640 medium supplemented with 10% charcoal stripped FBS (Sigma-Aldrich) which was heat inactivated at 56° C. for thirty minutes, and a mixture of 100 units/ml penicillin, 100 μg/ml streptomycin and 2 mM L-glutamine for 96 h.
(§3) RNA isolation, Reverse Transcription, and Real Time PCR. Total RNA was isolated from cells using the RNeasy Mini Kit (Qiagen). Reverse transcription PCR was then performed using 500 ng of total RNA with random primers and using the high-capacity complementary DNA Archive kit (Applied Biosystems). The complementary DNA from this reaction was measured using quantitative real time PCR using the StepONE Plus Real Time PCR system (Life Technologies Corporation, Carlsbad, Calif.). All reactions were performed in triplicate and normalized to glyceraldehyde-3-phosphate-dehydrogenase values in the same samples. All primers and Taqman probes were purchased from the applied Biosystems inventory (Invitrogen) (Patki et al., 2015).
. […]

DLC1 mRNA in C4-2 cells = assay: In situ HDACi activity: DLC1 mRNA in C4-2 cells; type: cell-based; settings: 48 h, normalized to GAPDH mRNA, FIG. 2F
Experimental: as §1, §2, §3
. […]

p21 mRNA in LNCaP cells = assay: p21 mRNA induction in LNCaP cells; settings: 10 μM, 48 h, FIG. 5A
[2] = system: 55 KDa polypeptide (putative Hsp90 fragment); assay: Western blot of acetylated lysine in C4-2 cells; settings: 24 h, acetylated lysine antibody, FIG. 4C
Experimental: (§8) Cells were then harvested for western blot analysis using antibody to AR (4A), HSP90 (4B), Acetyl-Lysine (4C) or GAPDH (loading control). ImageJ software was used to determine the intensities of the bands relative to the vehicle control for each protein. The values were then divided by the values for GAPDH within the same samples.
(§9) Western Blot Analysis. Cells were washed once with phosphate buffered saline (PBS) and then lysed with RIPA buffer (150 mM NaCl, 1% Nonidet P-40, 0.5% sodium deoxycholate, 0.1% SDS, 50 mM Tris of pH 8.0) containing a protease inhibitor cocktail (Pierce, Thermo Fisher Scientific). The cell lysates were then incubated on ice for 40 minutes. Total protein concentrations were estimated using the Bradford Assay (Bio-Rad). Protein samples (10-40 ug) were heated at 95° C. for 5 minutes and resolved by electrophoresis on 8% polyacrylamide-SDS gels and electrophoretically transferred to PVDF membranes (Millipore, Billerica, Mass.). The membranes were then probed overnight at 4° C. with the appropriate primary antibody followed by the appropriate horseradish peroxidase-conjugated secondary antibody.

C4-2 cells = assay: MTT cell viability assay, C4-2 cells; type: cell-based; settings: C4-2 cells; 5 μM; MTT Day 3 relative to Day 0; FIG. 6C
Experimental: (6A) C4-2 cells were seeded in 96-well plates and 24 h later, they were treated with the indicated compounds (0.1 μM-10 μM) or with vehicle (DMSO). Cell viability was measured by the MTT assay on Days 0 and 3 of treatment. EC50 values were calculated from nonlinear regression plots using GraphPad Prism5 software. […] Cell viability was measured by the MTT assay on Days 0 and 3 of treatment. […] Cell viability was measured by the MTT assay on Days 0 and 3 of treatment. […] (6D) 22Rv1 cells were infected with AR shRNA lentivirus, or control shRNA. 72 h after infection, cells were plated and viable cells were measured by the MTT assay on the indicated days (6D, bottom). Cells were also harvested for western blot analysis and probed with antibody to AR, which was also reactive with the AR splice variant AR-V7 (6D, top). (6E) 22Rv1 cells were seeded in 96-well plates and 24 h later, they were treated with the indicated compounds (0.1 μM-10 μM) or with vehicle (DMSO). Cell viability was measured by the MTT assay on Days 0 and 3 of treatment. EC50 values were calculated from nonlinear regression plots using GraphPad Prism5 software.
Cell Proliferation Assay. Cells were trypsinized and 6000 cells/well were seeded in 96-well plates coated with poly-D-lysine. The cells were seeded in phenol red-free medium supplemented with 10% FBS, 100 units/ml penicillin, 100 μg/ml streptomycin, 2 mM L-glutamine mixture and sodium pyruvate (1 mM) for C4-2 cells and phenol red-free medium supplemented with 10% FBS, 100 units/ml penicillin, 100 μg/ml streptomycin and 2 mM L-glutamine mixture for 22Rv1 cells. The cells were grown at 37° C. in 5% CO2. Twenty four hours after seeding in the 96-well plates, the cells were treated with indicated compound or DMSO (vehicle). The culture medium was not changed during the time course of the assay. On Day zero and on Day 3, cell viability was determined using the MTT assay. MTT (10 μL, 5 mg/mL) was added to each well and incubated for 2 h at 37° C. The formazan crystal sediments were dissolved in 100 μL of DMSO, and the absorbance at 570 nm was measured using the BioTek Synergy 2 Microplate Reader (BioTek, Winooski, Vt.). […] IC50 values were calculated from nonlinear […] plots using GraphPad Prism5 software.

Hsp90 = assay: Western blot of Hsp90 protein in C4-2 cells; settings: 1 μM to 10 μM, 24 h, relative to GAPDH, FIG. 4B
Experimental: as §8, §9

p21 mRNA in C4-2 cells = assay: p21 mRNA induction in C4-2 cells; settings: 48 h, FIG. 5B
[3] = system: KLK3 mRNA (AR target gene) in C4-2 cells; assay: Inhibition of R1881 activation of KLK3 mRNA in C4-2 cells; type: cell-based; settings: hormone depleted 96 h, R1881 1 nM, compound 1-10 μM, 48 h, FIG. 3A
Experimental: (§4) Cell Culture and Reagents. LNCaP and 22Rv1 cell lines were from American Type Culture Collection (Manassas, Va.). C4-2 cells were kindly provided by Dr. Edwin Sanchez (University of Toledo). […] R1881 was kindly provided by Dr. Stephan Patrick (Karmanos Cancer Institute). All experiments were conducted using phenol-red free growth media.
as §3, with “samples.” for “samples. All primers and Taqman probes were purchased from the applied Biosystems inventory (Invitrogen) (Patki et al., 2015).”

[4] = system: TMPRSS2 mRNA (AR target gene) in C4-2 cells; assay: Inhibition of R1881 activation of TMPRSS2 mRNA in C4-2 cells; type: cell-based; settings: hormone depleted 96 h, R1881 1 nM, compound 1-10 μM, 48 h, FIG. 3B
Experimental: as §4
as §3, with “samples.” for “samples. All primers and Taqman probes were purchased from the applied Biosystems inventory (Invitrogen) (Patki et al., 2015).”

[5] = system: HDACs from Hela cell nuclear extract; type: biochemical; settings: HeLa cell nuclear extract; tested at 10 μM and 25 μM; FIG. 2B
Experimental: (§5) FIGS. 2A-2F show measurement of intrinsic and in situ HDACi activities. […] IC50 values were calculated from nonlinear regression plots using GraphPad Prism5 software. […] Recombinant HDAC6 was incubated with each drug at the indicated concentrations. IC50 values were calculated from nonlinear regression plots using GraphPad Prism5 software.
(§6) HDAC activity assay. In vitro HDAC inhibition was measured by using the HDAC fluorimetric assay/drug discovery Kit (Enzo Life Sciences, BML-AK500) and the HDAC6 fluorometric drug discovery kit (Enzo Life Sciences, BML-AK516) following the manufacturer's protocols and instructions. IC50 values were calculated from nonlinear […] plots using GraphPad Prism5 software.
(§7) HDAC1 and HDAC2 are enriched in nuclear extracts whereas HDAC6 is a cytosolic enzyme that is the principal modulator of the acetylation status of Hsp90. […] Again, TSA served as the positive control in FIG. 2D.

human recombinant HDAC6 = biological target: T1, human recombinant HDAC6 (Homo sapiens, UniProt Q9UBN7); assay: HDAC6 fluorometric assay, recombinant enzyme; type: biochemical; settings: tested at 10 μM and 25 μM; FIG. 2D
T1 construct: purchased Enzo Life Sciences BML-AK516
T1 sequence (Q9UBN7 1-1215): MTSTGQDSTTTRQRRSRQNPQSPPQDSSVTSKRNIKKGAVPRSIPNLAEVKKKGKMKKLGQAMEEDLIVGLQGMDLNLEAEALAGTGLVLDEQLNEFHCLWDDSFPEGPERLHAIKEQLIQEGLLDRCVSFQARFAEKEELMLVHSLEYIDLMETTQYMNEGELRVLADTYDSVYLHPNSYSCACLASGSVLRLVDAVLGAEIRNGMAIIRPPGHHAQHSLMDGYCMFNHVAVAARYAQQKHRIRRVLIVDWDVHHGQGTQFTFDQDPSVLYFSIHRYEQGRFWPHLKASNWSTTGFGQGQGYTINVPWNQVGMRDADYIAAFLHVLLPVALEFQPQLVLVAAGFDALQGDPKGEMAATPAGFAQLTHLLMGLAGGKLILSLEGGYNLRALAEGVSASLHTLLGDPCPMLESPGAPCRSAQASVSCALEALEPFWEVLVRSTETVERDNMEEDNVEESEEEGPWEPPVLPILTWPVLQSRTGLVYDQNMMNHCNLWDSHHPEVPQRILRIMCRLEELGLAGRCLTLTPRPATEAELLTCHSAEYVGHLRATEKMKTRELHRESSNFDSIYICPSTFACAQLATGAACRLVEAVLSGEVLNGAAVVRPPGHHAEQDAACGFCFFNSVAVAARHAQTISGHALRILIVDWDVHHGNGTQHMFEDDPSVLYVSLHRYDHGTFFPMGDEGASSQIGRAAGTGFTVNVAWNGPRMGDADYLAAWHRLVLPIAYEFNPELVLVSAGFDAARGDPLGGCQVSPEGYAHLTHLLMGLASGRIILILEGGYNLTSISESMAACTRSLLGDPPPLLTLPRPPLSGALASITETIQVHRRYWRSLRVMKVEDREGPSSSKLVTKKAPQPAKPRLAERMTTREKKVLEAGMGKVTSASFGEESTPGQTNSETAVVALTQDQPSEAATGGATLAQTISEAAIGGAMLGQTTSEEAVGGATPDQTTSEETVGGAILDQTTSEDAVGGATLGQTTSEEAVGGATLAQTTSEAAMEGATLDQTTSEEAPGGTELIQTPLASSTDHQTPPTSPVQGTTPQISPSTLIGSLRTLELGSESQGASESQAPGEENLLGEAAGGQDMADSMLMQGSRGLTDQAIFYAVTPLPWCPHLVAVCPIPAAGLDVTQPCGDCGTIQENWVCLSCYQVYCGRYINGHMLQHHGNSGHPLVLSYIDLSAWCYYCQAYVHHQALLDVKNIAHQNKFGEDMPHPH
Experimental: as §5, §6, §7

SMILES	chromatin association of AR (ChIP signal) [1]	DLC1 mRNA expression (DLC1 mRNA in LNCaP cells)	DLC1 mRNA expression (DLC1 mRNA in C4-2 cells)	p21 mRNA expression (p21 mRNA in LNCaP cells)	hyper-acetylation of a 55 KDa polypeptide [2]	cell death (viable cells below the number on Day 0) (C4-2 cells)	Hsp90 protein level (degradation) (Hsp90)	p21 mRNA expression (p21 mRNA in C4-2 cells)	inhibition of activation of KLK3 by R1881 [3]	inhibition of activation of TMPRSS2 by R1881 [4]	inhibition of nuclear HDAC activity [5]	inhibitory activity against HDAC6 (human recombinant HDAC6)
C[C@]1(O)CC[C@H]2[C@@H]3CCC4=CC(=O)CCC4=C3C=C[C@@]21C [androgen, R1881]	strongly stimulated chromatin association of AR	–	–	–	–	–	–	–	–	–	–	–
O=C(CCCCCCC(=O)Nc1ccccc1)NO [SAHA, suberanilohydroxamic acid, reference compound]	basal ChIP signal	strongly up-regulated	strongly up-regulated	induced p21 mRNA	hyper-acetylation of a 55 KDa polypeptide	caused cell death	a decrease in Hsp90 was evident at the higher doses	induced p21 mRNA	–	–	–	–
COC(=O)CCCCCCNC(=O)c1ccc(N2C(=S)N(c3ccc(C#N)c(C(F)(F)F)c3)C(=O)C2(C)C)cc1F [Compound 3-52, Methyl-7-(4-(3-(4-cyano-3-(trifluoromethyl)phenyl)-5,5-dimethyl-4-oxo-2-thioxoimidazolidin-1-yl)-2-fluorobenzamido)heptanoate]	–	–	–	–	–	–	–	–	comparable to Enz	comparable to Enz	did not inhibit nuclear HDAC activity even up to a concentration of 25 μM	did not show significant inhibitory activity
